Experimental data reported in patent publication US4341780A, “Substituted pyrido [1,2-a] pyrimidines useful as anti-allergic, anti-ulcer and anti-diabetic agents” (Farmitalia Carlo Erba S.p.A., priority 1979, dated 1982).

Columns and labels:
[1] = system: passive cutaneous anaphylaxis (PCA); experiment: IgE-mediated passive cutaneous anaphylaxis (PCA) test in rats, oral administration; type: in vivo; settings: rat PCA, p.o., pretreatment time 15'; KB = dose reducing to one half the activity of the sensitizing serum; lower = more active
From the text: The compounds of the invention have anti-allergic activity, and are therefore useful in the prevention and treatment of all the affections of allergic origin, e.g. bronchial asthma, allergic rhinitis, hay fever, urticaria and dermatosis. The anti-allergic activity of the compounds of the invention is shown, e.g., by the first that they are active in the passive cutaneous anaphylaxis (PCA) test in rats, according to Goose J. and Blair A. M. J. N. (Immunology, 16, 749, 1969).
The activity data are expressed in terms of KB defined as the dose of active compound capable of reducing to one half the activity of the serum used for the sensitization:
B=dose of antagonist compound expressed in mg/kg;
DR=dose ratio: antilogarithm of the distance between the Log dose effect functions of the scrum with and without antagonist (J. H. Gaddum et al, Exp. Physiol., 1955, 40, 49).
The KB is adopted here because this value is independent both of the dose of the drug and the reagin concentration used for the sensitization.
The lower the KB value, the higher the anti-allergic activity.
The anti-allergic activity was determined e.g. by the inhibition of the IgE-mediated PCA according to Goose J. and Blair A. M. J. N. (Immunology, 16, 749, 1969) using homocytotropic antibodies raised in rats following the method of Mota I., Immunology, 7, 681, (1964).
The tested compounds were administered per os (p.o) 15 minutes before the administration of the antigen: at least 6 rats were used for each dose.

[2] = approximate acute toxicity (LD50) in the mouse, per os; settings: in vivo, po, single administration of increasing doses, measured on the seventh day
Protocol: For example, the approximate acute toxicity (LD50) of the compound 2-trans-(2-phenyl-ethenyl)-3-propyl-4-oxo-4H-pyrido(1,2-a)pyrimidine-7-carboxylic acid in the mouse, determined with single adminstration of increasing doses and measured on the seventh day of treatment is per os higher than 800 mg/kg. Analogous toxicity data have been found for the other compounds of the invention.

SMILES | Anti-allergic activity KB [1] | LD50 at 168 h [2]
O=C(O)c1cc(=O)c2c(OCC(O)COc3cccc4oc(C(=O)O)cc(=O)c34)cccc2o1 [Disodium Cromoglycate, reference compound] | > 200 mg/kg | –
CCCc1c(/C=C/c2ccccc2C)nc2ccc(C(=O)O)cn2c1=O [FCE 20099, 2-trans-[2-(2-methyl-phenyl)-ethenyl]-3-propyl-4-oxo-4H-pyrido[1,2-a]pyrimidine-7-carboxylic acid] | 2.02 mg/kg | –
CCCc1c(/C=C/c2cccc(OC)c2)nc2ccc(C(=O)O)cn2c1=O [FCE 20183, 2-trans-[2-(3-methoxy-phenyl)-ethenyl]-3-propyl-4-oxo-4H-pyrido[1,2-a]pyrimidine-7-carboxylic acid] | 1.48 mg/kg | –
CCCc1c(/C=C/c2ccccc2)nc2n(c1=O)C1CC1(C(=O)O)C=C2 (stereo not drawn) [FCE 20188, 2-trans-(2-phenyl-ethenyl)-3-propyl-6,7-methylen-4-oxo-4H-pyrido[1,2-a]pyrimidine-7-carboxylic acid] | 2.34 mg/kg | –
CCCc1c(/C=C/c2cccc(OC)c2OC)nc2n(c1=O)C1CC1(C(=O)O)C=C2 (stereo not drawn) [FCE 20461, 2-trans-[2-(2,3-dimethoxy-phenyl)-ethenyl]-3-propyl-6,7-methylen-4-oxo-4H-pyrido[1,2-a]pyrimidine-7-carboxylic acid] | 1.22 mg/kg | –
CCc1c(/C=C/c2cccc(OC)c2)nc2n(c1=O)C1CC1(C(=O)O)C=C2 (stereo not drawn) [FCE 20509, 2-trans-[2-(3-methoxy-phenyl)-ethenyl]-3-ethyl-6,7-methylen-4-oxo-4H-pyrido[1,2-a]pyrimidine-7-carboxylic acid] | 0.61 mg/kg | –
CCCc1c(/C=C/c2ccccc2)nc2ccc(C(=O)O)cn2c1=O [K 13808, 2-trans-(2-phenyl-ethenyl)-3-propyl-4-oxo-4H-pyrido[1,2-a]pyrimidine-7-carboxylic acid] | 2.16 mg/kg | > 800 mg/kg
CCc1c(/C=C/c2ccccc2)nc2n(c1=O)C1CC1(C(=O)O)C=C2 (stereo not drawn) [K 13830, 2-trans-(2-phenyl-ethenyl)-3-ethyl-6,7-methylen-4-oxo-4H-pyrido[1,2-a]pyrimidine-7-carboxylic acid] | 1.15 mg/kg | –
